The experiment addresses T1, Inhibitor of nuclear factor kappa-B kinase subunit beta (Homo sapiens, UniProt O14920).
T1 sequence (O14920 whole entry): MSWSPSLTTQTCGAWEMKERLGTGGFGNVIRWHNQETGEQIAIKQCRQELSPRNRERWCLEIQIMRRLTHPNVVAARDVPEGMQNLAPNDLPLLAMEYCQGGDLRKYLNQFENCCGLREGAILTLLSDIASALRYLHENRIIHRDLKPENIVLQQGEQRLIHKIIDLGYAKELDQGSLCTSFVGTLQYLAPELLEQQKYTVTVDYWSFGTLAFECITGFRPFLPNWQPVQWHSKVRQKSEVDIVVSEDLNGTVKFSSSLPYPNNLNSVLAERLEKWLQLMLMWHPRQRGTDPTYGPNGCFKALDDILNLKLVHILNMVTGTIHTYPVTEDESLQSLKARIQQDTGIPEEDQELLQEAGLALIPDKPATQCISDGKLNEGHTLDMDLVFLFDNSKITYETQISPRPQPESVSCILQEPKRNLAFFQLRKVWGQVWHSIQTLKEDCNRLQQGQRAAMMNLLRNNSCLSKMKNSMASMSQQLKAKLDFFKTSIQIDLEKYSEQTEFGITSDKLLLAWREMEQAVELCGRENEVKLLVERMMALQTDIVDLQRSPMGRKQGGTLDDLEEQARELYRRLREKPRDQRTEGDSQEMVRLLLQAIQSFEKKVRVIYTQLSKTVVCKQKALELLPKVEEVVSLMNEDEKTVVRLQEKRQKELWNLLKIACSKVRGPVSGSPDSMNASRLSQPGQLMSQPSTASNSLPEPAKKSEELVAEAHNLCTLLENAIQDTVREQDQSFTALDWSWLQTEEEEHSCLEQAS
The experiment in a line: Inhibition of IKK-beta after 30 mins.

This note sets out measurements from ChEMBL document CHEMBL1147956 (Bioorg Med Chem Lett, 2007).

By IC50 is commonly meant the point on the concentration scale where inhibition reaches its midpoint. Lower therefore signals greater potency. Consider `Cc1cc(-c2c3ccccc3c(Br)c3sc(C)c(C)c23)cc(C)c1O[C@H](Cc1ccccc1)C(=O)O` [ERTIPROTAFIB], for which the IC50 stood at 400 nM. That is a sub-micromolar value.
